Test: gradient 5% acetonitrile 3 min, to 50% in 2 min, to 85% in 15 min, held 3 min, 100 µL/min
Conditions: column: Zorbax Extend-C18 2.1 x 50 mm; eluents: water / acetonitrile, 0.1% formic acid
Outline: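 Data were gathered over 3 months by HPLC coupled to a quadrupole time-of-flight mass spectrometer, operated in positive and negative ionization mode. Mixtures of ~100 pure standards ran on a Zorbax Extend-C18 column (2.1 × 50 mm, 1.8 μm) at 100 μL/min, with water and acetonitrile each containing 0.1% formic acid and dead and dwell volumes of 40 μL and 900 μL. Retention time was read from adduct peaks picked by computer and checked manually.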

| RP-LC retention time [s] | Compound |
| --- | --- |
| 1140 | CC(C)Cn1cc(S(=O)(=O)N2CCN(c3ccccc3F)CC2)c2cccnc21 |
| 1050 | O=S(=O)(c1cc(-c2nnc(C3CCCC3)o2)co1)N1CCCCCC1 |
| 826 | O=C(Cn1cccc1-c1nc(-c2ccc(Cl)cc2)cs1)NCCCN1CCCC1 |
| 747 | CCOC(=O)c1c(S(=O)(=O)N2CCC(C(=O)NC(C)CC)CC2)c(C)n(C)c1C (centres undefined) |
| 927 | CCOc1cc(C(=O)NC2CCN(c3cc(-c4ccc(Cl)cc4)[nH]n3)C2)cc(OCC)c1OCC (centres undefined) |
| 644 | COc1ccc(C(=O)NC2CCN(c3ccc(N4CCSCC4)nn3)CC2)c(OC)c1 |
| 585 | Cc1ccc(CNC(=O)c2ccc3c(c2)ncn3CCN2CCCC2)cc1 |
| 1140 | O=S(=O)(c1cccc2cccnc12)N1CCc2nc(-c3ccc(Cl)cc3)ncc2C1 |
| 1010 | CC1Cc2ccccc2N1C(=O)CSc1nnc(-c2ccccc2)o1 (centres undefined) |
| 865 | COC(=O)C(C)NC(=O)N1CCC2(CC1)Nc1cc(F)ccc1-n1cccc12 (centres undefined) |
| 822 | Clc1ccc(-c2nc(N3CCC4(CC3)OCCO4)c3ccccc3n2)cc1 |
| 683 | CNC(=O)C1CN(C(=O)Nc2cc(OC)cc(OC)c2)CC12CCCC2 (centres undefined) |
| 1070 | CCc1ccc(S(=O)(=O)N2C[C@@H]3C(=O)N(C(CC)c4cccs4)C(=O)[C@@H]3C2)cc1 (some centres undefined) |
| 765 | CCc1nc2c(=O)n(CC(=O)N3CCN(c4ccccc4)CC3)nc(C)c2s1 |
| 566 | CCc1cc(=O)n(CC(=O)NCc2ccccc2)c(N)n1 |
| 1020 | O=c1ccc(-c2ccc(Br)cc2)nn1Cc1nc(-c2cccs2)no1 |
| 718 | Cc1c(Cl)cccc1NC(=O)N1C[C@@H](F)C[C@H]1C(=O)N1CCCCC1 |
| 781 | O=C(Cc1c[nH]c2ccccc12)N1CCC(NS(=O)(=O)c2ccc(F)cc2)CC1 |
| 1050 | Cc1ccc(Cl)c(Nc2ccccc2C(=O)O)c1Cl |
| 907 | CCn1cc(C)c(C(=O)O)c1CC(=O)Nc1cc(C)cc(C)c1 |
| 962 | CN1C(=O)c2cc(S(=O)(=O)Nc3ccc(Cl)cc3F)ccc2Oc2cccnc21 |
| 838 | COC(=O)c1cc(OCC(=O)Nc2cc(F)ccc2F)c2ccccc2n1 |

| RP-LC retention time [s] | Compound |
| --- | --- |
| 917 | Cc1cc(C(=O)Nc2c(F)c(F)c(F)c(F)c2F)n(-c2ccccc2)n1 |
| 1100 | CC(C)(C)c1noc(-c2ccnc(-n3cnc(C(=O)NC4CCCCC4)c3)c2)n1 |
| 657 | COC(=O)c1ccc(C(=O)Nc2ccc(CC(=O)NC3CC3)cc2)cc1 |
| 761 | CSc1nc(N2CCCC2)c2cnn(CCNC(=O)c3cc(-c4ccccc4)n[nH]3)c2n1 |
| 750 | Cc1ccccc1C1CC(=O)c2cnc(N3CCC(C(N)=O)CC3)nc2C1 (centres undefined) |
| 759 | COc1cc(Cl)ccc1C(=O)N1C[C@@H]2C[C@H](NC(=O)c3ccccc3)[C@H]1C2 |
| 884 | O=C(CCn1c(=O)sc2ccccc21)Nc1ccc(Br)cc1 |
| 794 | Cc1noc(C)c1S(=O)(=O)N1CCC(c2noc(-c3ccccn3)n2)C1 (centres undefined) |
| 961 | c1ccc(C(O[C@@H]2CCCN(CCc3ccc4c(c3)OCO4)C2)c2ccccc2)cc1 |
| 590 | CCCN(C)CC1(O)CCC2(CCN(C(=O)c3ccsc3)CC2)CC1 |
| 669 | COc1ccc(NC(=O)Cn2c(N3CCOCC3)nc(C)cc2=O)c(OC)c1 |
| 1080 | Fc1ccccc1-c1noc(Cc2nnc(-c3cccc(Cl)c3)o2)n1 |
| 1100 | CCCN1C(=O)COc2ccc(-c3csc(NC(=O)C4CCCCC4)n3)cc21 |
| 765 | CCN(CC)CCSC(=O)C(c1ccccc1)c1ccccc1 |
| 634 | COC(=O)CN1C(=O)C2CCCN2C(=O)c2ccccc21 (centres undefined) |
| 1040 | Cc1cc(-c2c(C)sc(C)c2S(=O)(=O)N2CCN(c3cccc(Cl)c3)CC2)n[nH]1 |
| 958 | COc1ccc(OCC(=O)N2CCc3cc(-c4csc(C)n4)ccc32)cc1 |
| 885 | CC1(C(=O)NC2CCCCCC2)CN(S(C)(=O)=O)CC(=O)N1Cc1cccc(F)c1 (centres undefined) |
| 920 | COc1ccc(NC(=O)c2cc3ccccc3c(=O)o2)c([N+](=O)[O-])c1 |
| 660 | COCCN(CCNC(=O)c1cc(-c2ccccn2)nc2ccccc12)Cc1ccco1 |
| 592 | O=C(C1CCN(c2nc3ccc(-c4cccnc4)nc3s2)CC1)N1CCOCC1 |
| 843 | CCCCOc1ccc(CNC(=O)c2ccc3c(c2)N(C)C(=O)C2CCCCN32)cc1 (centres undefined) |

| RP-LC retention time [s] | Compound |
| --- | --- |
| 767 | CCc1cccc(NC(=O)Cn2c(=O)c3cc(C)nn3c3ncccc32)c1 |
| 614 | Cn1cnc2cc(-c3noc(CNC(=O)c4ccccc4)n3)ccc21 |
| 652 | O=C(CNC(=O)c1cccc(Br)c1)NCc1cscn1 |
| 862 | Cc1ccc(N2CC(c3nc(-c4cccnc4)no3)CC2=O)cc1Cl (centres undefined) |
| 893 | Cc1nc2c(ccc3nc(NC(=O)c4cccc(F)c4)sc32)s1 |
| 680 | CCN(CC)C(=O)C1CCN(S(=O)(=O)c2ccc3c(c2)NC(=O)CO3)CC1 |
| 829 | COc1ccc(OC)c(Nc2c(-c3ccc4c(c3)OCO4)nc3cnccn23)c1 |
| 582 | NC(=O)C1CCN(C2CC(=O)N(c3cccc(F)c3)C2=O)CC1 (centres undefined) |
| 621 | O=C(Nc1ccc(Cn2cncn2)cc1)c1ccoc1 |
| 874 | COC(=O)c1ccccc1Nc1c(-c2ccc(N3CCOCC3)cc2)nc2cnccn12 |
| 704 | CC(C)c1nc(C2CN(C(=O)Nc3ccc(Cl)cc3)C2)n(C)n1 |
| 778 | CCCN1C(=O)c2c(C(=O)NCc3ccc(F)cc3)ncn2CC1(C)C(=O)NCc1ccc(F)cc1 (centres undefined) |
| 612 | COCCNC(=O)c1nc(-c2ccnc(N3CCCCC3)c2)no1 |
| 576 | O=C(CN1CCN(c2ccccn2)CC1)Nc1ccc(F)c(F)c1 |
| 705 | COc1ccc(-c2cc(N3CCC(NC(=O)c4ccc(OC)cc4OC)C3)n[nH]2)cc1 (centres undefined) |
| 600 | Cc1ccc2nc(NC(=O)CN3CCc4nc(NC(=O)C5CC5)sc4C3)sc2c1 |
| 711 | Cc1cccc(NS(=O)(=O)c2cc3n(c2)CCCN(C)C3=O)c1C |
| 986 | CCN1C(=O)c2cc(S(=O)(=O)Nc3ccc(C)c(C)c3)ccc2Oc2cccnc21 |
| 784 | Cc1noc(C)c1Cc1ccc(C(=O)N2CCC(c3nc(CCOCC4CC4)no3)C2)o1 (centres undefined) |
| 946 | COC(=O)c1cccc(C(=O)N2CCN(c3cc(Cl)ccc3C)CC2)n1 |
| 688 | CCCC(=O)N1CCC2(CC1)NC(=O)c1ccccc1O2 |
| 685 | COc1cc(NC(=O)N2CCC3(CC2)NC(=O)c2ccccc2O3)cc(OC)c1OC |

| RP-LC retention time [s] | Compound |
| --- | --- |
| 702 | CC(C)N(C(=O)Cn1c(C2CC(=O)N(C(C)(C)C)C2)nc2ccccc21)c1ccccc1 (centres undefined) |
| 663 | CCOC(=O)N1CCN(C(=O)c2nn(-c3ccccc3C)c(=O)cc2OC)CC1 |
| 732 | CC(C)Sc1ccc(CC(=O)N2CC(c3nc(-c4ncccn4)no3)C2)cc1 |
| 598 | CCOC(=O)N1CCN(C(=O)Cc2csc(NC(=O)c3cnccn3)n2)CC1 |
| 704 | CCC(=O)Nc1ccc2c(c1)Sc1ncccc1C(=O)N2C(C)C |
| 792 | CCc1nc2c(NC(=O)c3ccccc3)cccn2n1 |
| 710 | CCc1nn2c(CNC(=O)c3ccc(F)c(Cl)c3)c(C)nc2s1 |
| 678 | Cc1ccn2cc(-c3ccc(NC(=O)c4cccc(Cl)c4)cc3)nc2n1 |
| 1070 | CSc1ccc(-c2noc(Cn3c(=O)n(CC4CCCO4)c(=O)c4ccccc43)n2)cc1 (centres undefined) |
| 859 | Cc1cccc(N2C(=O)CN(Cc3ccccc3)[C@H]3CS(=O)(=O)C[C@H]32)c1 |
| 983 | CCC(=O)N(C1CCOCC1)C1CCN(S(=O)(=O)c2ccc(C(C)C)cc2)CC1 |
| 998 | CCc1ccc(Oc2cc(N3CCC(C(=O)NCCc4ccccc4)CC3)ncn2)cc1 |
| 669 | COc1cccc(C(=O)NCC(C)(O)C2CC2)c1OC (centres undefined) |
| 756 | CN1c2ccccc2C(=O)NC12CCN(C(=O)c1cccc(Cl)c1)CC2 |
| 803 | CCc1cccc(NC(=O)N2CCC(OC3CCN(S(C)(=O)=O)CC3)CC2)c1 |
| 776 | O=C(NC1CCCC1)c1ccc2ccnc(N3CCN(c4ccccc4)CC3)c2c1 |
| 719 | CC1(C)CC(=O)C2=C(C1)N(CC1CCCO1)C(=O)C2(NC(=O)c1cccnc1)C(F)(F)F (centres undefined) |
| 959 | Cc1cc(S(=O)(=O)N2C[C@@H](F)C[C@H]2C(=O)N2CCc3ccccc3C2)ccc1F |
| 550 | CN1CC(=O)NC(c2ccccc2Br)C1=O (centres undefined) |
| 865 | CCCCN(C)C(=O)Cn1nc(C)c2sc(-c3ccccc3)nc2c1=O |
| 663 | OCC1OC(n2cnc3c(SCc4ccccc4)ncnc32)C(O)C1O (centres undefined) |
| 772 | CC(C)c1ccc(S(=O)(=O)NCC(c2cccnc2)c2c[nH]c3ccccc23)cc1 (centres undefined) |

| Compound | RP-LC retention time [s] |
| --- | --- |
| O=C(CN1CC=C(c2cnn(-c3ccc(F)cc3)c2)CC1)NC1CCCCC1 | 695 |

Reference: the METLIN SMRT retention time set (Domingo-Almenara et al. 2019)
